From patent publication US11014917B2, “5-fluoro-c-(aryl or heterocyclyl)-glycoside derivatives useful as dual SGLT1 / SGLT2 modulators” (Janssen Pharmaceutica NV, priority 2017, dated 2021)

How the values were obtained:
human SGLT2 = target: T1, human SGLT2 (Homo sapiens, UniProt P31639); assay: SGLT2 assay: Na-dependent 14C-AMG uptake in CHO-K1 cells stably expressing human SGLT2; format: cell-based; conditions: for IC50: average if tested more than once
T1 construct: expressed in transfected cells
T1 sequence (P31639 1-672): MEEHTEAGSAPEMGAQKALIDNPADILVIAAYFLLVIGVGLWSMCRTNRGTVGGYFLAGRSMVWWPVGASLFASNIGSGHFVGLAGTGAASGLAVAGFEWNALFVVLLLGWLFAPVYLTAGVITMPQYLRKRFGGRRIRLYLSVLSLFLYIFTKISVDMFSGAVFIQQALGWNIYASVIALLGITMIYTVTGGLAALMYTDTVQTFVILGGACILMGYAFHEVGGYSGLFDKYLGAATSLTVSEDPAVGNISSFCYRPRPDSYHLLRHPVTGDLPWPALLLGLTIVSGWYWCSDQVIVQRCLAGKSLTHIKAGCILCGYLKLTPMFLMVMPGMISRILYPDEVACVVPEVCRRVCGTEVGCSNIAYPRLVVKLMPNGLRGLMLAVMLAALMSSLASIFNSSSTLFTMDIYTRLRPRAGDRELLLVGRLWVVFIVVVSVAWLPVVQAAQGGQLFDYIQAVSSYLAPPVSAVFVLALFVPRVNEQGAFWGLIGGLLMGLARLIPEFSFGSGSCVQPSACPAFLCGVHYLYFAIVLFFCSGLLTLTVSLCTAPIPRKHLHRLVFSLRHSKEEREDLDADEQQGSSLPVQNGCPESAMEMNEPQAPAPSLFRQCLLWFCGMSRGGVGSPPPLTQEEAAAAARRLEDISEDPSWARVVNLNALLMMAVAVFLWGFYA
How it was run: (§1)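 Stable CHO-K1 lines were pretreated 24 h with 10 mM Na-butyrate, then compound (0.001–10 μM) for 10 min in Na+ buffer (137 mM NaCl, pH 7.4). Uptake of 14C-AMG (500 μM final, 0.07 μCi/well) over 2 h at 37° C measured by scintillation; %-inhibition or IC50.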

human SGLT1 = target: T2, human SGLT1 (Homo sapiens, UniProt P13866); assay: SGLT1 assay: Na-dependent 14C-AMG uptake in CHO-K1 cells stably expressing human SGLT1; format: cell-based; conditions: for IC50: average if tested more than once
T2 construct: expressed in transfected cells
T2 sequence (P13866 1-664): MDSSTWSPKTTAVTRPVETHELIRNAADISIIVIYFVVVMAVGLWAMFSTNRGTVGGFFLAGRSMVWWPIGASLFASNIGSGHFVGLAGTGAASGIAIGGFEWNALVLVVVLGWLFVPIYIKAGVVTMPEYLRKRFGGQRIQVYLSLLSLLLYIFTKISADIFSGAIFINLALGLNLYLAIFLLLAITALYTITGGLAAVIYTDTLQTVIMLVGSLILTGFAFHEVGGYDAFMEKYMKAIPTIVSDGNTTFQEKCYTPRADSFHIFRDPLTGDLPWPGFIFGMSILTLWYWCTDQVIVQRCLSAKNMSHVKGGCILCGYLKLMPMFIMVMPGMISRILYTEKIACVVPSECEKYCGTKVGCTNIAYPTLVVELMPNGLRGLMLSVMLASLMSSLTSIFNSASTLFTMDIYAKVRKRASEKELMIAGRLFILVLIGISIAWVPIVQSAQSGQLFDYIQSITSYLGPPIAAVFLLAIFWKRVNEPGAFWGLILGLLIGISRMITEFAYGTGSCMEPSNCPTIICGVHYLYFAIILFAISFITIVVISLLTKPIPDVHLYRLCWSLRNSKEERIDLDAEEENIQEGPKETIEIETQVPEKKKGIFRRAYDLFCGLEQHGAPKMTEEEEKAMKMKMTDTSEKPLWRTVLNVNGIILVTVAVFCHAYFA
How it was run: as §1

SMILES	IC50 (human SGLT2)	IC50 (human SGLT1)	SGLT2 %-inhibition (human SGLT2; @ 0.3 μM)	SGLT1 %-inhibition (human SGLT1; @ 0.3 μM)	further results
Cc1cc(O)c([C@@H]2O[C@H](CO)[C@@H](F)[C@H](O)[C@H]2O)cc1Cc1cc2c(s1)CCN(C(=O)N1CCCC1)C2 [Compound 66, (2-(5-((2S,3R,4R,5S,6R)-5-fluoro-3,4-dihydroxy-6-(hydroxymethyl)tetrahydro-2H-pyran-2-yl)-4-hydroxy-2-methylbenzyl)-6,7-dihydrothieno[3,2-c]pyridin-5(4H)-yl)(pyrrolidin-1-yl)methanone]	14 nM	40 nM			
N#CN1CCc2sc(Cc3cc([C@@H]4O[C@H](CO)[C@@H](F)[C@H](O)[C@H]4O)c(O)cc3Cl)cc2C1 [Compound 114]	5 nM	109 nM			
COc1cc(Cl)c(Cc2cc3c(s2)CCN(C(=O)N2CCCC2)C3)cc1[C@@H]1O[C@H](CO)[C@@H](F)[C@H](O)[C@H]1O [Compound 96]			18.2% @ 0.3 μM	29.1% @ 0.3 μM	
COc1cc(CO)c([C@@H]2O[C@H](CO)[C@@H](F)[C@H](O)[C@H]2O)cc1Cc1cc2ccccc2s1 [Compound 34]			27.6% @ 0.3 μM	38.6% @ 0.3 μM	
COc1cc(C)c(Cc2cc3c(s2)CCN(c2ncc(C)s2)C3)cc1[C@@H]1O[C@H](CO)[C@@H](F)[C@H](O)[C@H]1O [Compound 123]	100 nM	1360 nM			
COC[C@H]1O[C@@H](c2cc(Cc3cc4ccccc4s3)c(C)cc2O)[C@H](O)[C@@H](O)[C@@H]1F [Compound 19]			68.1% @ 0.3 μM	47.6% @ 0.3 μM	
COc1cc(OC)c(C2OC(C(C)O)C(F)C(O)C2O)cc1Cc1cc2ccccc2s1 (single isomer, unassigned) [Compound 72]	24 nM	127 nM			
Cc1cc(O)c([C@@H]2O[C@H](C)[C@@H](F)[C@H](O)[C@H]2O)cc1Cc1cc2ccccc2s1 [Compound 16, (2S,3R,4R,5S,6R)-2-(5-(benzo[b]thiophen-2-ylmethyl)-2-hydroxy-4-methylphenyl)-5-fluoro-6-methyl-tetrahydro-2H-pyran-3,4-diol]	29 nM	111 nM			
CCc1cc(O)c([C@@H]2O[C@H](CO)[C@@H](F)[C@H](O)[C@H]2O)cc1Cc1cc2ccccc2s1 [Compound 31]	19 nM	9 nM			
Cc1cc(CO)c([C@@H]2O[C@H](CO)[C@@H](F)[C@H](O)[C@H]2O)cc1Cc1cc2ccccc2s1 [Compound 42]	10 nM	98 nM			
COc1c(Cc2ccc3c(c2)CCCO3)cc([C@@H]2O[C@H](CO)[C@@H](F)[C@H](O)[C@H]2O)c2c1CCO2 [Compound 126, (2S,3R,4R,5S,6R)-2-(5-(chroman-6-ylmethyl)-4-methoxy-2,3-dihydrobenzofuran-7-yl)-5-fluoro-6-(hydroxymethyl)-tetrahydro-2H-pyran-3,4-diol]					inhibition at 0.3 µM (human SGLT2; @ 0.3 μM): 16.8%; inhibition at 0.3 µM (human SGLT1; @ 0.3 μM): 21.7%
CCc1cc(OC)c([C@@H]2O[C@H](CO)[C@@H](F)[C@H](O)[C@H]2O)cc1Cc1cc2c(s1)CCN(C#N)C2 [Compound 115]			79.3% @ 0.3 μM	35.6% @ 0.3 μM	
Cc1cnc(N2CCc3sc(Cc4cc([C@@H]5O[C@H](CO)[C@@H](F)[C@H](O)[C@H]5O)c(O)cc4C)cc3C2)s1 [Compound 117]			69.9% @ 0.3 μM	44.3% @ 0.3 μM	

Continued, in another order:

IC50 (human SGLT2)	IC50 (human SGLT1)	SGLT2 %-inhibition (human SGLT2; @ 0.3 μM)	SGLT1 %-inhibition (human SGLT1; @ 0.3 μM)	SMILES	further results
12 nM	523 nM			OC[C@H]1O[C@@H](c2cc3c(c(Cc4ccc5c(c4)CCCO5)c2)OCC3)[C@H](O)[C@@H](O)[C@@H]1F [Compound 56]	
7 nM	52 nM			[2H]C([2H])([2H])Oc1c([C@@H]2O[C@H](CO)[C@@H](F)[C@H](O)[C@H]2O)cc(C([2H])([2H])c2ccc3c(c2)OCCO3)c2c1CCO2 [Compound 161, (2S,3R,4R,5S,6R)-2-(7-((2,3-dihydrobenzo[b][1,4]dioxin-6-yl-)methyl-d2)-4-(methoxy-d3)-2,3-dihydrobenzofuran-5-yl)-5-fluoro-6-(hydroxymethyl)tetrahydro-2H-pyran-3,4-diol]	
5 nM	1420 nM			COc1cc(C)c(Cc2cc3c(s2)CCN(C#N)C3)cc1[C@@H]1O[C@H](CO)[C@@H](F)[C@H](O)[C@H]1O [Compound 110, 2-(5-((2S,3R,4R,5S,6R)-5-fluoro-3,4-dihydroxy-6-(hydroxymethyl)-tetrahydro-2H-pyran-2-yl)-4-methoxy-2-methylbenzyl)-6,7-dihydrothieno[3,2-c]pyridine-5(4H)-carbonitrile]	
13 nM	190 nM			[2H]C1([2H])Oc2ccc(Cc3cc([C@@H]4O[C@H](CO)[C@@H](F)[C@H](O)[C@H]4O)ccc3OC)cc2OC1([2H])[2H] [Compound 173]	
4 nM	48 nM			CCc1ccc(Cc2cc([C@@H]3O[C@H](CO)[C@@H](F)[C@H](O)[C@H]3O)c(O)c3c2OCC3)cc1 [Compound 62]	
8 nM	71 nM			[2H]C([2H])([2H])Oc1c([C@@H]2O[C@H](CO)[C@@H](F)[C@H](O)[C@H]2O)cc(Cc2ccc3c(c2)OCCO3)c2c1CCO2 [Compound 160, (2S,3R,4R,5S,6R)-2-[7-(2,3-dihydro-1,4-benzodioxin-6-ylmethyl)-4-(trideuteriomethoxy)-2,3-dihydrobenzofuran-5-yl]-5-fluoro-6-(hydroxymethyl)tetrahydropyran-3,4-diol]	
12 nM	231 nM			Cc1c([C@@H]2O[C@H](CO)[C@@H](F)[C@H](O)[C@H]2O)cc(Cc2ccc3c(c2)SCCO3)c2c1CCO2 [Compound 131]	
17 nM	227 nM			OC[C@H]1O[C@@H](c2cc(Cc3ccc4c(c3)CCCO4)c(Cl)c3c2OCC3)[C@H](O)[C@@H](O)[C@@H]1F [Compound 125, (2S,3R,4R,5S,6R)-2-(4-chloro-5-(chroman-6-ylmethyl)-2,3-dihydrobenzofuran-7-yl)-5-fluoro-6-(hydroxymethyl)-tetrahydro-2H-pyran-3,4-diol]	
7 nM	176 nM			Cc1cc(O)c([C@@H]2O[C@H](CO)[C@@H](F)[C@H](O)[C@H]2O)cc1Cc1cc2c(s1)C(=O)CCO2 [Compound 129]	
16 nM	56 nM			[2H]C([2H])(c1ccc2c(c1)OCCO2)c1cc([C@@H]2O[C@H](CO)[C@@H](F)[C@H](O)[C@H]2O)c(F)cc1OC [Compound 165]	
137 nM	126 nM			COc1cc(O)c([C@@H]2O[C@H](CO)[C@@H](F)[C@H](O)[C@H]2O)cc1Cc1cc2c(s1)CCN(C(C)=O)C2 [Compound 79]	
		61.9% @ 0.3 μM	47.7% @ 0.3 μM	[2H]C([2H])(c1ccc2c(c1)OCCO2)c1cc([C@@H]2O[C@H](CO)[C@@H](F)[C@H](O)[C@H]2O)ccc1CC [Compound 157]	
		67.9% @ 0.3 μM	31.2% @ 0.3 μM	O=C1COc2cc(Cc3cc([C@@H]4O[C@H](CO)[C@@H](F)[C@H](O)[C@H]4O)cc4c3OCC4)ccc2N1 [Compound 97]	
		54.7% @ 0.3 μM	6.6% @ 0.3 μM	COc1ccc([C@@H]2O[C@H](CO)[C@@H](F)[C@H](O)[C@H]2O)cc1Cc1cc2c(s1)CCN(C#N)C2 [Compound 120]	
62 nM	187 nM			COc1c(Cc2ccc3c(c2)SCCO3)cc([C@@H]2O[C@H](CO)[C@@H](F)[C@H](O)[C@H]2O)c2c1CCO2 [Compound 128, (2S,3R,4R,5S,6R)-2-(5-((2,3-dihydrobenzo[b][1,4]oxathiin-6-yl)methyl)-4-methoxy-2,3-dihydrobenzofuran-7-yl)-5-fluoro-6-(hydroxymethyl)-tetrahydro-2H-pyran-3,4-diol]	
		10.1% @ 0.3 μM	37.4% @ 0.3 μM	CC1(C)Oc2c(Cc3ccc4c(c3)OCCO4)cc([C@@H]3O[C@H](CO)[C@@H](F)[C@H](O)[C@H]3O)cc2C1CO (stereo partly shown) [Compound 85]	
